In US20230076792A1, “SEQUENTIAL TARGETING IN CROSSLINKING NANO-THERANOSTICS FOR TREATING BRAIN TUMORS” (The Regents of the University of California, priority 2019, published 2023):

Legend:
[1] = In vitro drug release profile (dialysis, pH 7.4 then pH 6.5); assay type: physicochemical; conditions: pH 7.4 PBS
Procedure: Drug release profile. STICK-NP@Cy@Gd was prepared to evaluate the in vitro release profile using dialysis cassettes (Pierce Chemical Inc.) with a 3 kDa MWCO. To make an ideal sink condition, 10 g charcoal was added in the release medium. The cassettes were dialyzed against PBS (pH7.4) at room temperature. The PBS at pH 7.4 was replaced with fresh PBS at pH 6.5 at 4 h. The concentration of CY7.5 and Gd-DTPA remaining in the dialysis cassette at various time points was measured by UV-vis spectroscopy and ICP-MS.

[2] = tested on: DIPG (PDX) cells; assay: Anti-cancer efficacy in orthotopic PDX DIPG mouse model; assay type: in vivo, SCID mouse
Procedure: Anti-cancer efficacy study in orthotopic brain tumor models. […] After confirming the establishment of brain tumors, mice were randomly assigned into different groups. Tumor size was monitored using advanced T1-weight imaging (TR/TE=300 ms/15 ms). For imaging study, mice were injected with 250 mg/kg Gd-DTPA. Tumor size of DIPG model was calculated from the aggregation of tumor area in different MRI slices, 1 mm thick. Tumor size of GBM model was calculated as the followed equation: […]
where W is the width of the tumor and the L is the length of the tumor (W<L). One mouse per group was sacrificed on day 12 after MRI imaging, and organs and brain with tumors were harvested for histopathology evaluation. Animals were continuously monitored their appearance, behavior, and body weight. Once the body weight loss>20%, animals were considered as reaching the humane endpoint.

[3] = tested on: U87-MG cells; assay: Cellular uptake assay in brain tumor cells; assay type: cell-based, human; conditions: pH 6.5 versus pH 7.4, Cy7.5 0.1 mg/mL
Procedure: To study the cellular uptake of STICK-NP@Cy, the bEnd.3 cells or U87-MG cells were seeded on 8-well chamber slides (10000 cells/well) and treated with STICK-NP@Cy and other controls (0.1 mg/mL Cy7.5) for 1 hour and washed by PBS three times. Cells were then fixed and stained with DAPI. Cell imaging was acquired using a Keyence fluorescence microscope. For quantitative study, bEnd.3 cells or U87-MG cells (10000 cells/well) were seeded in 96 well plate for overnight and then treated the cells with STICK-NP@Cy and other controls (0.1 mg/mL Cy7.5). Cells were harvested at 0 h, 1 h, 2 h, 3 h, and 4 h and washed with PBS. Total cells were lysed with 100 μL DMSO and the fluorescence intensity was measured by fluorescence spectrophotometer (RF-6000, Shimazu, Japan). To inhibit GLUT1 activity, bEnd.3 cells were pretreated with 40 μM of WZB-117 for 24 h before incubation with STICK-NP@Cy. For the tumor uptake study, U87-MG cells were pretreated with 40 μM of AZT for 24 h to alter the expression of surface sialic acid. To block the interaction, U87-MG cells were pre-incubated with excess free CBA (80 μM) for 24 h to compete for the binding sites with STICK-NP@Cy (pH 6.5) through the CBA targeting moiety in the secondary smaller micelles.

[4] = Pharmacokinetic study in jugular vein catheterized rats; assay type: in vivo; conditions: Cy7.5 10 mg/kg, serum
Procedure: FIGS. 2A and 2B show cumulative release profile for both hydrophilic (Gd-DTPA) (FIG. 2A) and hydrophobic (Cy7.5) payloads (FIG. 2B) from STICK-NPs and NM in the presence of different pH. A mixture of NM and free Gd was used in (FIG. 2A), as Gd could not be loaded into NM. Drug release study was performed initially at pH 7.4 PBS (grey areas) and was then subjected to pH 6.5 after 4 h (pink areas). Samples were collected at different time points and were measured by inductively coupled plasma mass spectrometry (ICP-MS) for Gd-DTPA level and fluorescence spectrometer for the concentration of Cy7.5. (n=3). […] (n=3) FIG. 2E show the intensity-weighted distribution changes of STICK-NPs in the presence of different concentrations of glucose (mmol/L). Of note, normal human serum glucose level ranges from 3.9 to 5.5 mmol/L. FIG. 2F show pharmacokinetic profiles of free Cy7.5, STICK-NP@Cy, and NM@Cy (Cy7.5, 10 mg/kg) in jugular vein catheterized rats (n=3). Serum was collected at different time points, and drug concentrations were measured based on fluorescence signals. The error bars were the standard deviation (SD).

## CNC[C@H](O)[C@@H](O)[C@H](O)[C@H](O)CO.CNC[C@H](O)[C@@H](O)[C@H](O)[C@H](O)CO.O=C([O-])CN(CCN(CC(=O)[O-])CC(=O)O)CCN(CC(=O)[O-])CC(=O)O.[Gd+3] [free Gd-DTPA, gadopentetic acid]
[1]
  Release of Gd-DTPA: released immediately

## CC[C@]1(O)C[C@H]2CN(CCc3c([nH]c4ccccc34)[C@@](C(=O)OC)(c3cc4c(cc3OC)N(C=O)[C@H]3[C@@](O)(C(=O)OC)[C@H](OC(C)=O)[C@]5(CC)C=CCN6CC[C@]43[C@@H]65)C2)C1 [free VCR, vincristine]
[2]; MRI, compared to PBS control
  Effect on tumor growth: minimal inhibition effects
[2]; mouse, in vivo
  Extension of survival compared to PBS control: failed to extend the survival
  Survival of mice beyond day 12: died after day 12

## cyanine 7.5 [Free Cy]
[3]
  U87-MG cell uptake after pretreatment with pH 6.5: no significant enhancement
[4]
  AUC(0-∞): 51400 ± 13400 ng·h/mL
  Cmax: 4190 ± 400 ng/mL
  Vz: 2.46 ± 0.51 L/kg
  t1/2z: 16.92 ± 0.78 h
